Assay results as given in patent US20040171566A1, “Antisense modulation of p38 mitogen activated protein kinase expression” (priority 1999, published 2004).
In the oligonucleotide strings, read from the 5' end, every base follows the letter of its sugar. An asterisk marks phosphorothioate; unmarked linkages are phosphodiester. Other units and linkages are bracketed, terminal groups are in braces. A string of capitals states the bases alone. e = 2'-O-(2-methoxyethyl) (MOE); [5mC] = 5-methylcytosine; d = 2'-deoxy (DNA)

Experiments:
human p38α mRNA = test: Inhibition of human p38α mRNA expression in Jurkat cells, Northern blot; assay type: cell-based
Method: (§1) The human Jurkat T-cell line (American Type Culture Collection, Manassas, Va.) was maintained in RPMI 1640 growth media supplemented with 10% fetal bovine serum (FBS; Hyclone, Logan, Utah). HUVEC cells (Clonetics, San Diego, Calif.) were cultivated in endothelial basal media supplemented with 10% FBS (Hyclone, Logan, Utah).
Jurkat cells were grown to approximately 75% confluency and resuspended in culture media at a density of 1×10^7 cells/ml. A total of 3.6×10^6 cells were employed for each treatment by combining 360 μl of cell suspension with oligonucleotide at the indicated concentrations to reach a final volume of 400 μl. Cells were then transferred to an electroporation cuvette and electroporated using an Electrocell Manipulator 600 instrument (Biotechnologies and Experimental Research, Inc.) employing 150 V, 1000 μF, at 13 Ω. Electroporated cells were then transferred to conical tubes containing 5 ml of culture media, mixed by inversion, and plated onto 10 cm culture dishes.
(§2) Total mRNA was isolated using the RNEASY7 Mini Kit (Qiagen, Valencia, Calif.; similar kits from other manufacturers may also be used), separated on a 1% agarose gel, transferred to HYBOND™-N+ membrane (Amersham Pharmacia Biotech, Piscataway, N.J.), a positively charged nylon membrane, and probed. p38 MAPK probes were made using the Prime-A-Gene7 kit (Promega Corporation, Madison, Wis.), a random primer labeling kit, using mouse p38α or p38β cDNA as a template. A glyceraldehyde 3-phosphate dehydrogenase (G3PDH) probe was purchased from Clontech (Palo Alto, Calif.), Catalog Number 9805-1. The fragments were purified from low-melting temperature agarose, as described in Maniatis, T., et al., Molecular Cloning: A Laboratory Manual, 1989. The G3PDH probe was labeled with REDIVUE™ ^32P-dCTP (Amersham Pharmacia Biotech, Piscataway, N.J.) and Strip-EZ labelling kit (Ambion, Austin, Tex.). mRNA was quantitated by a PhosphoImager (Molecular Dynamics, Sunnyvale, Calif.).
Jurkat cells were grown and treated as described above except the concentration of oligonucleotide was varied as indicated in Table 3. […] Maximum inhibition was approximately 70% with 16500 (SEQ ID NO 17).

human p38β mRNA = test: Inhibition of human p38β mRNA expression in HUVEC cells, Northern blot; assay type: cell-based
Method: as §1
HUVEC cells were allowed to reach 75% confluency prior to use. The cells were washed twice with warm (37° C.) OPTI-MEM™ (Life Technologies). The cells were incubated in the presence of the appropriate culture medium, without the growth factors added, and the oligonucleotide formulated in LIPOFECTIN7 (Life Technologies), a 1:1 (w/w) liposome formulation of the cationic lipid N-[1-(2,3-dioleyloxy)propyl]-n,n,n-trimethylammonium chloride (DOTMA), and dioleoyl phosphotidylethanolamine (DOPE) in membrane filtered water. HUVEC cells were treated with 100 nM oligonucleotide in 10 μg/ml LIPOFECTIN7. Treatment was for four hours.
as §2
Every oligonucleotide tested gave at least 50% inhibition.
Oligonucleotides 17893 (SEQ ID NO. 27), 17899 (SEQ ID NO:33), 17904 (SEQ ID NO. 38), and 17907 (SEQ ID NO. 41) were chosen for dose response studies. HUVEC cells were cultured and treated as described in Example 2 except that the oligonucleotide concentration was varied as shown in Table 6. The Lipofectin7/Oligo ratio was maintained at 3 μg Lipofectin7/100 nM oligo, per ml. mRNA was measured by Northern blot as described in Example 2.

[1] = Jurkat cells electroporated with 10 μM oligonucleotide, Northern blot
[2] = 100 nM oligonucleotide in 10 μg/ml LIPOFECTIN, four hours, Northern blot

Sequence | % mRNA EXPRESSION (human p38α mRNA; [1]) [%] | % mRNA EXPRESSION (human p38β mRNA; [2]) [%] | % mRNA Inhibition (human p38β mRNA; [2]) [%] | also measured
CAGCCGCGGGACCAGCGGCG (antisense e[5mC]*eA*eG*e[5mC]*e[5mC]*eG*dC*dG*dG*dG*dA*dC*dC*dA*eG*e[5mC]*eG*eG*e[5mC]*eG) [ISIS 16492] | 125 |  |  | 
CTGCCGGTAGAACGTGGGCC (antisense e[5mC]*eT*eG*e[5mC]*e[5mC]*eG*dG*dT*dA*dG*dA*dA*dC*dG*eT*eG*eG*eG*e[5mC]*e[5mC]) [ISIS 16495] | 72 |  |  | % mRNA Inhibition (human p38α mRNA; [1]): 28%
GAAGTGGGATCAACAGAACA (eG*eA*eA*eG*eT*eG*dG*dG*dA*dT*dC*dA*dA*dC*eA*eG*eA*eA*e[5mC]*eA; antisense) [ISIS 16501] | 77 |  |  | % mRNA Inhibition (human p38α mRNA; [1]): 23%
AGTGCACGCTCATCCACACG (chemistry not fully specified) [ISIS 17909] |  | 13 | 87 | 
CCTACACATGGCAAGCACAT (chemistry not fully specified) [ISIS 17907] |  | 8 | 92 | % mRNA EXPRESSION (human p38β mRNA; dose 10 nM): 37%; % mRNA Inhibition (human p38β mRNA; dose 10 nM): 63%; % mRNA EXPRESSION (human p38β mRNA; dose 25 nM): 22%; % mRNA Inhibition (human p38β mRNA; dose 25 nM): 78%; % mRNA EXPRESSION (human p38β mRNA; dose 50 nM): 18%; % mRNA Inhibition (human p38β mRNA; dose 50 nM): 72%; % mRNA EXPRESSION (human p38β mRNA; dose 100 nM): 18%; % mRNA Inhibition (human p38β mRNA; dose 100 nM): 72%
GTGCTTCAGGTGCTTGAGCA (chemistry not fully specified) [ISIS 17895] |  | 25 | 75 | 
GTAAGCTTCTGACATTTCAC (antisense eG*eT*eA*eA*eG*e[5mC]*dT*dT*dC*dT*dG*dA*dC*dA*eT*eT*eT*e[5mC]*eA*e[5mC]) [ISIS 16496] | 61 |  |  | % mRNA EXPRESSION (human p38α mRNA; Jurkat cells, dose 2.5 nM): 94%; % mRNA Inhibition (human p38α mRNA; Jurkat cells, dose 2.5 nM): 6%; % mRNA EXPRESSION (human p38α mRNA; Jurkat cells, dose 5 nM): 74%; % mRNA Inhibition (human p38α mRNA; Jurkat cells, dose 5 nM): 26%; % mRNA EXPRESSION (human p38α mRNA; Jurkat cells, dose 10 nM): 47%; % mRNA Inhibition (human p38α mRNA; Jurkat cells, dose 10 nM): 53%; % mRNA EXPRESSION (human p38α mRNA; Jurkat cells, dose 20 nM): 41%; % mRNA Inhibition (human p38α mRNA; Jurkat cells, dose 20 nM): 59%
TCCTGAGACATTTTCCAGCG (antisense eT*e[5mC]*e[5mC]*eT*eG*eA*dG*dA*dC*dA*dT*dT*dT*dT*e[5mC]*e[5mC]*eA*eG*e[5mC]*eG) [ISIS 16494] | 72 |  |  | % mRNA Inhibition (human p38α mRNA; [1]): 28%
CGACATGTCCGGAGCAGAAT (chemistry not fully specified) [ISIS 17891] |  | 22 | 78 | 
TGGCAGCAAAGTGCTGCTGG (eT*eG*eG*e[5mC]*eA*eG*dC*dA*dA*dA*dG*dT*dG*dC*eT*eG*e[5mC]*eT*eG*eG; antisense) [ISIS 16488] | 157 |  |  | 
ACTGTTTGGTTGTAATGCAT (antisense; chemistry not fully specified) [ISIS 17900] |  | 40 | 60 | 
ACTTGACGATGTTGTTCAGG (antisense; chemistry not fully specified) [ISIS 17897] |  | 25 | 75 | 
TTCAGCTCCTGCCGGTAGAA (chemistry not fully specified) [ISIS 17892] |  | 10 | 90 | 
TCCAGGCTGAGCAGCTCTAA (chemistry not fully specified) [ISIS 17908] |  | 17 | 83 | 
CTTGCCAGATATGGCTGCTG (chemistry not fully specified) [ISIS 17910] |  | 26 | 74 | 
ATGATGCGCTTCAGCTGGTC (chemistry not fully specified) [ISIS 17901] |  | 15 | 85 | 
